Columns and labels:
[1] = Appearance of ibuprofen mixtures in PEG 400 with sodium or potassium hydroxide (visual inspection); assay type: physicochemical
Procedure: Mixtures were prepared in 10 g quantities by dispersing the acidic pharmaceutical agent in polyethylene glycol or polyethylene glycol and glycerin or polyethylene glycol and polyvinylpyrrolidone or polyethylene glycol, glycerin, and polyvinylpyrrolidone. Aqueous solutions of hydroxide were then added.

[2] = Solubility of the basic drug thioridazine in PEG 400 in presence and absence of hydrogen ion

Row | Appearance (Room temp) ([1]; 200 mg in 200 mg PEG 400, NaOH 0.1 M/E, water 1.5 wt %, slight ppt) | Appearance (Room temp) ([1]; 200 mg in 200 mg PEG 400, NaOH 0.2 M/E, water 2.8 wt %) | Appearance (Room temp) ([1]; 200 mg in 200 mg PEG 400, NaOH 0.3 M/E, water 4.1 wt %) | Appearance (Room temp) ([1]; 200 mg in 200 mg PEG 400, NaOH 0.4 M/E, water 5.2 wt %) | Appearance (Room temp) ([1]; 200 mg in 200 mg PEG 400, NaOH 0.5 M/E, water 6.6 wt %, solid admixture) | precipitation in presence of sodium hydroxide ([1]; PEG 400, 0.5 or more mole equivalents NaOH) | precipitation in presence of potassium hydroxide ([1]; PEG 400, 1.0 mole equivalents KOH, even at 4° C.) | SMILES | RESULT at 5° C. ([2]; FORMULA I, Hydrochloric Acid 0.0 mg) | RESULT at 5° C. ([2]; FORMULA II, Hydrochloric Acid 2.4 mg)
1 | Insoluble | Soluble | Soluble | Soluble | Insoluble | precipitation occurs | no precipitation occurs | CC(C)Cc1ccc(C(C)C(=O)O)cc1 (stereo not drawn) [Ibuprofen, ibuprofen] | – | –
2 | – | – | – | – | – | – | – | CSc1ccc2c(c1)N(CCC1CCCCN1C)c1ccccc1S2 (stereo not drawn) [Thioridazine, thioridazine] | INSOLUBLE | SOLUBLE
